Assay results from patent US8529927B2, “Alpha-2 agonist polymeric drug delivery systems” (Allergan, Inc., priority 2004, dated 2013).
Read-outs that look alike come from different tables or passages of the source.

Columns and labels:
[1] = test system: Branch retinal vein occlusion (BRVO); test: intravitreal implants in monkeys with laser-induced branch retinal vein occlusion (BRVO); format: in vivo, Cynomolgus monkeys
Description: Baseline measures were performed 3 days prior to implantation and 10 days following implantation with intraocular pressure (IOP), mfERG, laser Doppler scanning topography/flowmetry (HRT/HRF), optical coherence tomography (OCT), indocyanine green angiography (ICG) and fluorescein angiography (FA).
Wide angle contact lens fundus photography verified implant count and localization.
Branch retinal vein occlusion (BRVO) was achieved by injecting 1 ml of 20 mg/kg Rose Bengal intravenously followed by thermal irradiation using Omni Coherent Diode laser at 532 nm, 600 mW, 50 um spot size, 0.01 sec pulse mode with a 1.6× inversion contact lens. Laser pulses were delivered until the vein segment was closed. […] Occlusion was verified post-laser by fundus photography.
Delay in fluorescein filling of the occluded vein was quantified using Metamorph 6.0 software. Intensity measurements were made with pre-defined regions of interest for early and late phases of fluorescein angiography to quantify delay in filling and the observed delay in fluorescein clearance.
Intraocular pressure (IOP) was recorded (OD and OS) in each group in triplicate post implantation and prior to all follow-up electrophysiology and retinal imaging procedures.
Multi-focal ERG was performed using a VERIS 5.0 system.

[2] = cited from earlier work
in vivo = test: in vivo
Description: A separate group of rabbits were studied to obtain pharmacokinetic data. In these rabbits the implants were inserted using a surgical intravitreal implantation procedure performed as follows: a conjunctival incision was made, and a sclerotomy was performed with a 20-gauge MVR blade. The sclerotomy was 3 mm from the limbus and lateral to the dorsal rectus muscle between the 10 and 12 o'clock positions on the right eye, and between the 12 and 2 o'clock positions on the left eye. Using a sterile forceps, the test article was inserted through the sclerotomy. The sclerotomy was closed with 9-0 Prolene suture material. A sterile ocular lubricant was applied to the eye following the implantation procedure. Blood was collected from rabbits prior to euthanasia/necropsy on Days 8, 31, 58, 91, 136, or 184. The aqueous humor, vitreous humor, lens, retina and plasma samples from the rabbits were analyzed by using liquid chromatography-mass spectrometry/mass spectrometry (LC-MS/MS) methods.

[3] = albino, rabbit, lens, other: intravitreal implantation, 200 μg
[4] = albino, rabbit, plasma, other: intravitreal implantation, 200 μg
[5] = albino, rabbit, retina, other: intravitreal implantation, 200 μg
[6] = albino, rabbit, vitreous humor, other: intravitreal implantation, 200 μg

## Brc1c(NC2=NCCN2)ccc2nccnc12 [brimonidine, 5-bromo-6-(2-imidazolidinylideneamino) quinoxaline]
[1]; following BRVO, FIG. 14
  blood flow in the fovea (Laser Doppler Flowmetry): unchanged
[1]; n=2
  amount of laser burns needed to close the veins: 157±79
[2]; listed as brimonidine free base
  solubility in water: not water soluble
[2]; listed as brimonidine freebase
  solubility in water: negligible
In vivo; Day 8, Formulation #17 implant, estimate including ALQ samples
  Iris-ciliary body brimonidine concentration, estimated mean value in parentheses: 3010 ng/g
In vivo; Day 8 after intravitreal 200 μg brimonidine implant (Formulation #17), N = 2, two samples ALQ
  Iris-ciliary body brimonidine concentration: 942 ng/g
In vivo; Formulation #17 implant
  period of detectable release from the implant into the vitreous: at least a ninety day period
  route of clearance after release from the intravitreal implant: posterior clearance as opposed to an anterior clearance
  time brimonidine was present in the retina: at least 84 days
In vivo; albino, rabbit, iris-ciliary body, other: intravitreal implantation, 200 μg
  concentration at 91 day: 42.9 ± 18.7 ng/g
In vivo; [3]
  concentration at 58 day: 17.9 ± 12.5 ng/g
  concentration at 136 day: 16.2 ± 12.3 ng/g
  concentration at 184 day: 1.18 ± 0.71 ng/g
In vivo; [4]
  concentration at 8 day: 0.092 ng/mL
  concentration at 31 day: 0.0575 ng/mL
  concentration at 58 day: 0.255 ng/mL
In vivo; [5]
  concentration at 58 day: 122 ± 57.3 ng/g
  concentration at 91 day: 488 ± 471 ng/g
  concentration at 184 day: 59.8 ± 35 ng/g
In vivo; [6]
  concentration at 31 day: 9.35 ± 6.25 ng/mL
  concentration at 58 day: 5.6 ± 3.24 ng/mL
In vivo; any time point (Days 8-184), Formulation #17 implant
  detectability in the aqueous humor: not detectable at any time point
